Non-standard residues stand in square brackets, D forms with d. Residues, ends and D or L forms follow the SMILES beside them. *: point of attachment. Trp(6-Cl) = N[C@@H](Cc1c[nH]c2cc(Cl)ccc12)C(=O)O; Pip = O=C(O)[C@@H]1CCCCN1; ClAc = O=C(CCl)*
Tests used:
[1] = tested on: NSG mice; test: Toxicity after repeated doses in NSG mice (CBC, observation); type: in vivo, mouse
Experimental: Figure 6 Toxicity of 164B8 after repeated doses in NSG mice Blood from mice treated as described in Figure 5 was collected and evaluated at the end of the experiment. Peripheral blood from mice was collected and analyzed by standard complete blood count (CBC). (A) Body weight, (B) white blood cell (WBC) counts (×10^9 cells/L), (C) hemoglobin (HGB) concentration (g/dL), and (D) platelet counts (×10^9 cells/L, log scale) in peripheral blood were determined. Data are presented as individual values with mean ± SD. Dotted horizontal lines indicate physiological reference ranges. Statistical comparisons were performed using one-way AVOVA; p values are shown in each panel.
Bioluminescent imaging (BLI) was performed one week post-inoculation. Based on imaging intensity, mice were re-grouped to ensure six animals per group. The PIN1 inhibitor was administered via intraperitoneal injection at doses of 30 mg/kg or 60 mg/kg, once daily, 5 days per week for 2 weeks. Tumor engraftment and growth were monitored by in vivo BLI. D-luciferin potassium salt was dissolved in sterile PBS to a final concentration of 16.6 mg/mL and mice were injected intraperitoneally with D-luciferin solution (0.139 g luciferin/kg body weight), then imaged 10–15 min after luciferin injection using an IVIS Spectrum Imaging System (Lago X) with identical exposure times and binning settings for all mice. Bioluminescence signal intensity was quantified as total flux (photons/s) within a region of interest (ROI) using Aura image software. BLI was performed once every week during the treatment. After 2 weeks of treatment, mice were euthanized 6 h after the final dose. Blood samples were collected via cardiac puncture, and normal peritoneum, intestine, and liver tissues were harvested and snap-frozen on dry ice.

[2] = biological target: T1, human Pin1 (Homo sapiens, UniProt Q13526); test: Covalent complex formation with Pin1 by mass spectrometry; type: binding; conditions: ligand 20 μM, 2:1 ligand-to-protein ratio, 10 min incubation
T1 construct: Residues 1–163 of human Pin1 were expressed with a thrombin cleavage site and a HisTag at the N-terminus; 6xHis (N); thrombin cleavage site (N); made in house; host or cells: E. coli

[3] = tested on: CD-1 mice; type: in vivo, mouse
Experimental: (§1) The effect of Pin1 degradation by 164B8 on cell viability was assessed using live-cell analysis (IncuCyte S3). […] Furthermore, to evaluate the acute single-dose toxicity of 164B8 in vivo, CD-1 immune-competent mice were exposed to increasing doses of 164B8. […] Therefore, a maximum tolerated dose was not reached (Figure S12).
Figure S12: A) Acute toxicity study at 100mg/kg. In this preliminary safety study, 3 CD -1 mice were treated with a single dose of 100 mg/kg of 164B8. The injections were administered intraperitoneally (ip), and the body weight of the mice was measured for several days after the injection. B) Body weight control during the in -vivo efficacy study. The body weights of the mice in the three groups were measured on the day of treatment (day 0) and 7 and 14 days after.
(§2) (1 picture or pasted object on this page, not shown here)

[4] = Human plasma stability; type: in vitro ADME; conditions: 37°C, up to 6 h, acetonitrile quench, LC-MS/MS
Experimental: (§3) A solution of a Pin1 inhibitor was spiked into blank plasma at 1 μg/mL in various solutions, including an aqueous buffer (1× phosphate-buffered saline; Fisher Scientific, Fair Lawn, NJ), human plasma (Innovative Research Inc., Novi, MI), wild-type mouse plasma (Innovative Research Inc., Novi, MI), plasma form esterase-deficient mice (City of Hope, Duarte, CA), and plasma from Black 6-Cg mice (City of Hope, Duarte, CA).
(§4) The spiked plasma samples were incubated at 37°C for up to 6 h. At each designated time point, a 20 μL aliquot of the incubation sample was removed and quenched in 100 μL of acetonitrile. At the end of the incubation, the quenched samples were vortexed and centrifuged for 10 min at 4°C and 20,000 × g. The resulting supernatant was reconstituted and analyzed by LC-MS/MS.
(§5) Table S2. Stability half-life of agents reported in Table 1 after incubation at 37 °C in various media. Acq represents aqueous buffer composed of 1x phosphate buffered saline (Fisher Scientific, Fair Lawn, NJ); human represents human plasma (Innovative Research Inc., Novi, MI); mouse wt represents wild type mouse plasma (Innovative Research Inc., Novi, MI); mouse ES1e represents plasma form esterase deficient mice (City of Hope, Duarte, CA); mouse B6-Cg represents plasma from black 6-Cg mice (City of Hope, Duarte, CA). See Figure 1 for the chemical structures of these compounds.
(§6) Compound Acq Human Mouse Mouse ES1e Mouse

[5] = Stability in plasma from esterase-deficient (ES1e) mice; type: in vitro ADME; conditions: mouse, 37°C, up to 6 h, acetonitrile quench, LC-MS/MS
Experimental: as §3, §4, §5, §6

[6] = tested on: KPC cells; type: cell-based, mouse; conditions: 72 h
Experimental: as §1
(§7) Figure S11: Mia PaCa-2 and KPC cells were treated with different doses of 164B8, and the
(§8) IncuCyte S3 live-cell analysis system was used to monitor the agent’s activity every 3 hours for
as §2

[7] = tested on: MIA PaCa-2 cells; type: cell-based, human; conditions: 72 h
Experimental: as §1, §7, §8, §2

[8] = 30 mg/kg i.p. for 2 weeks, blood at end of experiment

T1 sequence (Q13526 whole entry, the tested form may be a part): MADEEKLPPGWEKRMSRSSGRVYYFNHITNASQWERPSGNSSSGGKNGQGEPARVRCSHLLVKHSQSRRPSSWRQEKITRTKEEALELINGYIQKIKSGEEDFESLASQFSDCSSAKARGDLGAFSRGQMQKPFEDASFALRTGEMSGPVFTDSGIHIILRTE

CNC(=O)[C@H](Cc1c[nH]c2ccccc12)NC(=O)[C@@H]1CCCCN1C(=O)[C@H](Cc1c[nH]c2cc(Cl)ccc12)NC(=O)CCl [164B8] (ClAc-[Trp(6-Cl)]-[Pip]-Trp-NHMe)
Tolerability of repeated dosing ([1]; 30 mg/kg i.p. for 2 weeks): generally well tolerated | Anemia (hemoglobin, CBC) [1, 8]: mild anemia | Thrombocytopenia (platelet counts, CBC) [1, 8]: moderate thrombocytopenia | Mice euthanized because of ascites development ([1]; 60 mg/kg i.p. for 2 weeks, final time point, no obvious carcinomatosis): two of six mice | % Complex (MS) [2]: ∼100% | Acute single-dose toxicity ([3]; 100 mg/kg single dose intraperitoneally (highest soluble dose), monitored over 2 weeks, 3 mice): did not produce any observable signs of acute toxicity | Maximum tolerated dose ([3]; single intraperitoneal dose up to 100 mg/kg): not reached | half-life at 1 μg/mL [4]: ~4.5 h | half-life at 1 μg/mL [5]: > 5 h | EC50 [6]: 5.3 µM | EC50 [7]: 8.4 µM

From PMC12657321, “Pre-clinical evaluation of a potent and effective Pin1-degrading agent in pancreatic cancer” (Molecular Therapy Oncology, 2025)
